The format of data set [1] is physicochemical.
The format of data set [2] is physicochemical. The source holds these as a separate data set.
For data set [3] the following is noted: room temperature, 90% H2O/D2O.
A short description of data set [4]: Solubility in water. The format is physicochemical.
Data set [5] is classed as physicochemical. The source holds these as a separate data set.
In data set [6] the test system is people. Particulars: exposure in the air; cited from earlier work.
The subject of data set [7] is radish, peas, and lettuce plants. Particulars: Carter et al., cited from earlier work.
Data set [8] has as its system soybeans. The data set can be described thus: Field trial: harvest yield of soybeans (Example 27). The format is in vivo. Particulars: 2 kg per acre, side dressing, versus not exposed. The text has this: All essential plant nurtients (N, P, K, and S) were applied in non-limiting amounts. Prior to planting soybeans, the fields were fertilized with 60 lb acre of P2O5, 80 lb per acre of K20, and 20 lb per acre of sulfur. The soybean seeds were a 2.8-3.2 relative maturity planted at 120,000 to 140,000 seeds per acre. All field management were designed to effectively control weed and insect pests to optimize soybean growth and yield. The soybeans were planted and either 0, 0.5, 1.0, or 2.0 kg per acre of dibutyldithiophosphate was applied as a side dressing to the soybean plants. The dibutyldithiophosphate was dissolved in water and applied. The harvest weight was determined for each plot and corrected for slight differences in moisture content.

Data set [9] deals with corn. The data set can be described thus: Growth of corn in pots exposed to dibutyldithiophosphate (Example 20). The format is in vivo. The conditions noted are these: 4 weeks. The method, then:
Corn was planted in 6″ TEKU pots. The pots were packed finger tight with potting mix #4 from Beautiful Land Products. The corn seeds were planted approximately 1.5 inches deep. Fifty seeds of corn were planted for every loading of dibutyldithiophosphate ammonium salt. After the seeds were added to the soil the dibutyldithiophosphate ammonium salt was added as a fully dissolved aqueous solution. Tap water (500 mL) was added to a measured amount of the salt to yield desired amount in 10 mL After mixing well for 10 minutes, the aqueous solution was added to each plant via syringe (10 mL) immediately around and on the seed. After adding the salt, the plants were moved outside in full sunlight until harvest. The corn plants were watered daily.
The corn was harvested after 4 weeks. Plant height was taken by straightening the corn plant out by the leaves and measuring from the base of the shoot to the longest point on the leaf. After removing the roots, the weight of the shoot and leaves was measured using a balance.
Statistical analysis was performed using IBM SPSS Statistics 25. Non-parametric Kruskal-Wallis test was performed to determine significance. Data represented are mean±standard error with ** indicating α<0.05 and * indicating α<0.1.

[10] abbreviates: water buffered at pH 6.7, FIG. 4.

Counter-ions that a name gives are not always drawn. Like-named read-outs stand apart in the source and are kept apart here. Where only a bound is given, the exact number is not on record here.

In the case of `CCCCOP(=S)(S)OCCCC` [Example 1, Dibutyldithiophosphate Ammonium Salt], in data set [1] (85° C., 90% H2O/D2O), the “Rate of first-step of hydrolysis (85° C.)” value is 0.00096 h⁻¹. Further, the “Time to complete hydrolysis” value in [1] (85° C., 90% H2O/D2O, to phosphoric acid only) came to 180 days. Moreover, the “Hydrolysis slower than the compound of Example 2” value in data set [1] (85° C., versus Example 2) is given as 3.5 ×. The “Hydrolysis slower than the dithiophosphate of Example 3” value in [1] (85° C., versus Example 3) is reported as 7.4 ×. Moreover, in data set [1] (85° C., versus Example 4), the “Hydrolysis slower than the dithiophosphate of Example 4” value was 1.4 ×. In data set [2] (setting [10]), the “Release of H2S (rank among the dithiophosphates)” value is recorded as “lowest”. In data set [3] (30 days, 31P NMR), the “Percent Degradation” value is less than 3%.

Consider `CC(C)[C@@H]1CC[C@@H](C)C[C@H]1OP(=S)([S-])O[C@@H]1C[C@H](C)CC[C@H]1C(C)C.[K+]` [Example 5], for which the “Release of H2S at 5 mM” value in data set [2] (pH 6.7) is “released H2S”. Besides, in [4] (concentration of 5 mM), the “Solubility in water at 5 mM” value is “mostly insoluble in water”. The “Solubility in water of the potassium and triethylamine salts” value in data set [4] is recorded as “insoluble in water”.

Turning to `CC1(C)[C@@H]2CC[C@]1(C)[C@H](OP(=S)(S)O[C@@H]1C[C@H]3CC[C@@]1(C)C3(C)C)C2` [Example 7], the “Solubility in water of the potassium and triethylamine salts” value in data set [4] is “insoluble in water”.

In the case of `CC(C)(C)OP(=S)([S-])OC(C)(C)C.[Na+]` [Example 8, Di(Tert-Butanol)Dithiophosphate Sodium Salt], the “Rate of hydrolysis slower at room temperature than at 85° C.” value in data set [1] (room temperature versus 85° C.) is recorded as 2,600 ×. Further, the “Rate of first-step of hydrolysis” value in data set [1] (room temperature, 90% H2O/D2O) was found to be 0.0051 h⁻¹. The “Release of H2S (rank among the dithiophosphates)” value in data set [2] (setting [10]) is recorded as “highest”. Moreover, the “ΔΔG^‡” value in [5] (25° C. versus 85° C.) was determined as 0.526 kcal/mol. Further, the “ΔH^‡” value in data set [5] (rate constants measured from 25 to 85° C.) was 27.84 kcal/mol. For the same compound, the “Percent degraded at day 12” value in [3] (day 12) was 62%. The “Percent degraded at day 20” value in data set [3] (day 20) turned out to be 88%.

For the compound `S=P(S)(Sc1ccccc1)Sc1ccccc1` [Example 13], the “Solubility in water of the potassium and triethylamine salts” value in data set [4] is recorded as “insoluble in water”.

Turning to `S=P1(S)OCCS1` (stereo not drawn) [Example 14], in data set [2] (pH 6.7), the “Release of H2S (rank among the dithiophosphates)” value is listed as “highest”.

In the case of `S` [Example H2S, hydrogen sulfide], in data set [6], the “Level immediately dangerous to life and health” value is 100 ppm.

In the case of `C1COCCN1.COc1ccc(P(=S)(S)N2CCOCC2)cc1` (stereo not drawn) [GYY-4137], in [7], the “Growth of radish, peas, and lettuce plants” value is on record as “increased the growth”. Besides, the “Harvest yield of radishes” value in data set [7] (milligram loadings) is reported as “doubled”.

`CCCCOP(=S)(S)OCCCC` [dibutyldithiophosphate]: the “Increase in harvest yield of soybeans” value in data set [8] is listed as 4.4%. Besides, the “Increase in weight of the corn plants” value in data set [9] (1 mg added to the soil adjacent to the seed, versus plants grown without) was determined as 39%. In data set [9] (1, 10, 50, and 75 mg loadings), the “Weight of the corn plants (significance)” value is reported as “statistically significant improvements”. In [9] (all loadings), the “Heights of the corn plants” value is recorded as “Little statistically significant difference”.
